What was measured:
ErbB2 V777L = ErbB2 V777L (Homo sapiens (Human), UniProt P04626, V777L); assay: ErbB enzyme assay (CisBio HTRF-KinEASE-TK), ErbB2 V777L; assay type: biochemical
In short: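 HTRF KinEASE-TK tyrosine-kinase read-out of substrate phosphorylation after a final 1 h at ambient temperature, from the 655/620 nm emission ratio.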

EGFR WT = EGFR WT (Homo sapiens (Human), UniProt P00533); assay: ErbB enzyme assay (CisBio HTRF-KinEASE-TK), EGFR WT; assay type: biochemical; details: ATP at Km (25 μM), 1 h incubation
EGFR WT, sequence (P00533 25-1210): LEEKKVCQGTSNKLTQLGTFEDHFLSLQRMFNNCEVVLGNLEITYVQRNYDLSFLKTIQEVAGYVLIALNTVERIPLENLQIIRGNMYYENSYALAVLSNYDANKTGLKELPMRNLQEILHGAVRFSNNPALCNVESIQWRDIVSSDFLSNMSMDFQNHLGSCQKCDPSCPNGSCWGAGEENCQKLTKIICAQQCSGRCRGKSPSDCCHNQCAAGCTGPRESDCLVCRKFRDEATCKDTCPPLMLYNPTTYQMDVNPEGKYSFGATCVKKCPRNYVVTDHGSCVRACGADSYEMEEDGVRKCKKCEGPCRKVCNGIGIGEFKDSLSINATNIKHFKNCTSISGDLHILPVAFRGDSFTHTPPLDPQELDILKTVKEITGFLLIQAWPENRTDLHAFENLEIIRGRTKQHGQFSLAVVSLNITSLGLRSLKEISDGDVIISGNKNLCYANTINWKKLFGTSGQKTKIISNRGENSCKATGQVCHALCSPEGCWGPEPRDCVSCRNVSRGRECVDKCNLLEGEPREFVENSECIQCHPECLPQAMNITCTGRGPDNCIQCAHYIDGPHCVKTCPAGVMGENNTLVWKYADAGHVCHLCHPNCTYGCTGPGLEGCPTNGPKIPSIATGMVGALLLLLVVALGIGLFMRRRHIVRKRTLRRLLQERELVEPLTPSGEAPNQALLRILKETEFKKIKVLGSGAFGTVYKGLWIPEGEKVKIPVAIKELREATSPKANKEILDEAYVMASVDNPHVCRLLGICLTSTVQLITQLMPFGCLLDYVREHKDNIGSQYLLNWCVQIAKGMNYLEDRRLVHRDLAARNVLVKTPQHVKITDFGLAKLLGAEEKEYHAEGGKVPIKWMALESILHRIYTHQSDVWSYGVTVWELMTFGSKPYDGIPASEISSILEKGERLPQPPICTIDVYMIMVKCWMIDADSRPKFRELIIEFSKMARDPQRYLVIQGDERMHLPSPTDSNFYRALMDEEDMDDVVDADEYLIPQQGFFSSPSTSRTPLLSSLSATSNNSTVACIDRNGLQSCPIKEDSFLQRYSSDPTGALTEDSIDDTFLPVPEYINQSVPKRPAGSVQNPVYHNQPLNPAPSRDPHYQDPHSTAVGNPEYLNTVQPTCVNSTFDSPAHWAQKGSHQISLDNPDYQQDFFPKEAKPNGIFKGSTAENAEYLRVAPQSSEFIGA
In short: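 Three-fold DMSO serial dilutions were added to kinase reactions and incubated 1 h at room temperature. Quench used 62.5 nM Sa-XL665 plus 0.25×TK-Ab-Cryptate in detection buffer, followed by another 1 h. Substrate phosphorylation was then measured by dual-wavelength HTRF.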

ErbB2 V777L, sequence (P04626 23-1255 V777L): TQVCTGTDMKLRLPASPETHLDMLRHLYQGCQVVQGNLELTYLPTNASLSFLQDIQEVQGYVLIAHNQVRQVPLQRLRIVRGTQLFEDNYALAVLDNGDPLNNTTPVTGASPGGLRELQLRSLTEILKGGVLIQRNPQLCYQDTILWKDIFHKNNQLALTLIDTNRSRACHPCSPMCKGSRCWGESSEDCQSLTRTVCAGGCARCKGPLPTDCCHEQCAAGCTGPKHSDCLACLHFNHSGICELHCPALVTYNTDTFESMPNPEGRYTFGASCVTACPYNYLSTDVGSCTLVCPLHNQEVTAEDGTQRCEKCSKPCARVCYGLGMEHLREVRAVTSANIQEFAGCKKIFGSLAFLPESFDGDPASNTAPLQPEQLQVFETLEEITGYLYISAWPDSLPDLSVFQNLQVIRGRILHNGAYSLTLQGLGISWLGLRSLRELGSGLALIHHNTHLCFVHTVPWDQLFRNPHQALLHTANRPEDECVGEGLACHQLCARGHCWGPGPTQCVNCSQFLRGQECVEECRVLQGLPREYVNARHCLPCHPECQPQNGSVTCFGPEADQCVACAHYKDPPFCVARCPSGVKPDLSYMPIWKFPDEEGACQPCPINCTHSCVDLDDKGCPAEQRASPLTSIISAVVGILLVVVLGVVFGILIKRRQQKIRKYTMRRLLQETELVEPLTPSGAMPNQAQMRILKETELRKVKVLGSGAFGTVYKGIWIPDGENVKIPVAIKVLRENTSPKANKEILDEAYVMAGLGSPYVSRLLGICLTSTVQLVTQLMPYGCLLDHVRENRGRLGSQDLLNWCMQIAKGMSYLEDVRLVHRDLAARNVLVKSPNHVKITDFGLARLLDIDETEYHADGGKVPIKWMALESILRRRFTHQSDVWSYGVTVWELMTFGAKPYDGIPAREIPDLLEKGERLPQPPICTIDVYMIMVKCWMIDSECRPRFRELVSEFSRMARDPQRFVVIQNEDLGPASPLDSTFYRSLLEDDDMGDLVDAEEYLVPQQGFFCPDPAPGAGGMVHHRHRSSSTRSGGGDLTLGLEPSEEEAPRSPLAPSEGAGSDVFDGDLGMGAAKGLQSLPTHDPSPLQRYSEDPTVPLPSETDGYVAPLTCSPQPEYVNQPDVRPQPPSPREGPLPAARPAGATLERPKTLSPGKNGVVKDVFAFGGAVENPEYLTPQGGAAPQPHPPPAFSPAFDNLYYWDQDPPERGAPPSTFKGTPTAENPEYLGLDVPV

## C=CC(=O)N1CCN(c2ncc3ncnc(Nc4c(OC)cc(Oc5ccc6c(c5)nnn6C)c(C)c4F)c3n2)CC1 [Compound 138, 1-(4-(8-((2-fluoro-6-methoxy-3-methyl-4-((1-methyl-1H-benzo[d][1,2,3]triazol-5-yl)oxy)phenyl)amino)pyrimido[5,4-d]pyrimidin-2-yl)piperazin-1-yl)prop-2-en-1-one]
ErbB2 V777L
  IC50: 100 to 500 nM
EGFR WT
  IC50: 100 to 500 nM

## C=CC(=O)N1CCN(c2ncc3ncnc(Nc4ccc(Oc5ccn6nc(C)nc6c5)c(C)c4)c3n2)C[C@H]1C [Compound 139]
ErbB2 V777L
  IC50: 100 to 500 nM
EGFR WT
  IC50: 100 to 500 nM

## C=CC(=O)N1[C@@H]2COC[C@H]1CN(c1ncc3ncnc(Nc4ccc(Oc5ccc6c(c5)nnn6C)c(C)c4)c3n1)C2 [Compound 140, 1-((1R,5S)-7-(8-((3-methyl-4-((1-methyl-1H-benzo[d][1,2,3]triazol-5-yl)oxy)phenyl)amino)pyrimido [5,4-d]pyrimidin-2-yl)-3-oxa-7,9-diazabicyclo[3.3.1]nonan-9-yl)prop-2-en-1-one]
ErbB2 V777L
  IC50: 50 to 100 nM
EGFR WT
  IC50: 100 to 500 nM

## C=CC(=O)N1CCCN(c2ncc3ncnc(Nc4ccc(Oc5ccc6c(c5)ncn6C)c(C)c4)c3n2)C[C@H]1C [Compound 143, (R)-1-(2-methyl-4-(8-((3-methyl-4-((1-methyl-1H-benzo[d]imidazol-5-yl)oxy)phenyl)amino)pyrimido[5,4-d]pyrimidin-2-yl)-1,4-diazepan-1-yl)prop-2-en-1-one]
ErbB2 V777L
  IC50: 100 to 500 nM
EGFR WT
  IC50: ≥ 1000 nM

## C=CC(=O)N1CC2CC1CN(c1ncc3ncnc(Nc4ccc(Oc5cc(F)c6c(c5)ncn6C)c(C)c4F)c3n1)C2 (stereo not shown) [Compound 147, 1-(3-(8-((2-fluoro-4-((7-fluoro-1-methyl-1H-benzo[d]imidazol-5-yl)oxy)-3-methylphenyl)amino)pyrimido[5,4-d]pyrimidin-2-y1)-3,6-diazabicyclo[3.2.1]octan-6-yl)prop-2-en-1-one]
ErbB2 V777L
  IC50: 50 to 100 nM
EGFR WT
  IC50: < 50 nM

## C=CC(=O)N1CCN(c2ncc3ncnc(Nc4ccc(Oc5ccc6c(c5)ncn6C(F)F)c(C)c4F)c3n2)C[C@H]1C [Compound 148, (R)-1-(4-(8-((4-((1-(difluoromethyl)-1H-benzo[d]imidazol-5-yl)oxy)-2-fluoro-3-methylphenyl)amino)pyrimido[5,4-d]pyrimidin-2-yl)-2-methylpiperazin-1-yl)prop-2-en-1-one]
ErbB2 V777L
  IC50: 50 to 100 nM
EGFR WT
  IC50: 100 to 500 nM

## C=CC(=O)N1CC[C@H]2CN(c3ncc4ncnc(Nc5ccc(Oc6ccc7c(c6)nnn7C)c(C)c5)c4n3)C[C@H]21 [Compound 149, 1-((3aS,6aS)-5-(8-((3-methyl-4-((1-methyl-1H-benzo[d][1,2,3]triazol-5-yl)oxy)phenyl)amino)pyrimido [5,4-d]pyrimidin-2-yl)hexahydropyrrolo[3,4-b]pyrrol-1(2H)-y1)prop-2-en-1-one]
ErbB2 V777L
  IC50: 100 to 500 nM
EGFR WT
  IC50: 500 to 1000 nM

## C=CC(=O)N1CC[C@@H]2CN(c3ncc4ncnc(Nc5ccc(Oc6ccc7c(c6)nnn7C)c(C)c5)c4n3)C[C@@H]21 [Compound 150, 1-((3aR,6aR)-5-(8-((3-methyl-4-((1-methyl-1H-benzo[d][1,2,3]triazol-5-yl)oxy)phenyl)amino)pyrimido[5,4-d]pyrimidin-2-yl)hexahydropyrrolo[3,4-b]pyrrol-1(2H)-yl)prop-2-en-1-one]
ErbB2 V777L
  IC50: 100 to 500 nM
EGFR WT
  IC50: 500 to 1000 nM

## C=CC(=O)N1CCN(c2ncc3ncnc(Nc4cc(C)c(Oc5ccc6c(c5)nnn6C)c(Cl)c4)c3n2)C[C@H]1C [Compound 151, (R)-1-(4-(8-((3-chloro-5-methyl-4-((1-methyl-1H-benzo[d][1,2,3]triazol-5-yl)oxy)phenyl)amino)pyrimido[5,4-d]pyrimidin-2-yl)-2-methylpiperazin-1-yl)prop-2-en-1-one]
ErbB2 V777L
  IC50: 100 to 500 nM
EGFR WT
  IC50: 100 to 500 nM

## C=CC(=O)N1CCN(c2ncc3ncnc(Nc4ccc(Oc5ccc6c(c5)nnn6C)c(C)c4)c3n2)CC[C@H]1C [Compound 152, (R)-1-(7-methyl-4-(8-((3-methyl-4-((1-methyl-1H-benzo[d][1,2,3]triazol-5-yl)oxy)phenyl)amino)pyrimido[5,4-d]pyrimidin-2-y1)-1,4-diazepan-1-yl)prop-2-en-1-one]
ErbB2 V777L
  IC50: 500 to 1000 nM
EGFR WT
  IC50: ≥ 1000 nM

## C=CC(=O)N1CCN(c2ncc3ncnc(Nc4cc(C)c(Oc5ccc6c(c5)nnn6C)c(F)c4)c3n2)C[C@H]1C [Compound 155, (R)-1-(4-(8-((3-fluoro-5-methyl-4-((1-methyl-1H-benzo[d][1,2,3]triazol-5-yl)oxy)phenyl)amino)pyrimido[5,4-d]pyrimidin-2-y1)-2-methylpiperazin-1-yl)prop-2-en-1-one]
ErbB2 V777L
  IC50: 100 to 500 nM
EGFR WT
  IC50: 500 to 1000 nM

## C=CC(=O)N1CCN(c2ncc3ncnc(Nc4ccc(Oc5ccc6c(c5)nnn6C)c(C)c4F)c3n2)C[C@H]1C [Compound 156, (R)-1-(4-(8-((2-fluoro-3-methyl-4-((1-methyl-1H-benzo[d][1,2,3]triazol-5-yl)oxy)phenyl)amino)pyrimido[5,4-d]pyrimidin-2-y1)-2-methylpiperazin-1-yl)prop-2-en-1-one]
ErbB2 V777L
  IC50: 100 to 500 nM
EGFR WT
  IC50: 100 to 500 nM

## C=CC(=O)N[C@@H]1CCCN(c2ncc3ncnc(Nc4ccc(Oc5ccc6c(c5)nnn6C)c(C)c4F)c3n2)C1 [Compound 157, (R)-N-(1-(8-((2-fluoro-3-methyl-4-((1-methyl-1H-benzo[d][1,2,3]triazol-5-yl)oxy)phenyl)amino)pyrimido[5,4-d]pyrimidin-2-yl)piperidin-3-yl)acrylamide]
ErbB2 V777L
  IC50: 50 to 100 nM
EGFR WT
  IC50: 100 to 500 nM

## C=CC(=O)N1CCN(c2ncc3ncnc(Nc4ccc(Oc5cnc6c(c5)ncn6C)c(C)c4F)c3n2)C[C@H]1C [Compound 158, (R)-1-(4-(8-((2-fluoro-3-methyl-4-((3-methyl-3H-imidazo[4,5-b]pyridin-6-yl)oxy)phenyl)amino)pyrimido[5,4-d]pyrimidin-2-y1)-2-methylpiperazin-1-yl)prop-2-en-1-one]
ErbB2 V777L
  IC50: 100 to 500 nM
EGFR WT
  IC50: 100 to 500 nM

## C=CC(=O)N1CCN(c2ncc3ncnc(Nc4cc(C)c(Oc5cc(F)c6c(c5)nnn6C)cc4OC)c3n2)C[C@H]1C [Compound 164, (R)-1-(4-(8-((4-((7-fluoro-1-methyl-1H-benzo[d][1,2,3]triazol-5-yl)oxy)-2-methoxy-5-methylphenyl)amino)pyrimido[5,4-d]pyrimidin-2-y1)-2-methylpiperazin-1-yl)prop-2-en-1-one]
ErbB2 V777L
  IC50: 500 to 1000 nM
EGFR WT
  IC50: 500 to 1000 nM

## C=CC(=O)N1C[C@H]2C[C@@H]1CN(c1ncc3ncnc(Nc4ccc(Oc5cc(F)c6c(c5)ncn6C)c(C)c4F)c3n1)C2 [Compound 167, 1-((1S,5R)-3-(8-((2-fluoro-4-((7-fluoro-1-methyl-1H-benzo[d]imidazol-5-y1)oxy)-3-methylphenyl)amino)pyrimido[5,4-d]pyrimidin-2-yl)-3,6-diazabicyclo[3.2.1]octan-6-yl)prop-2-en-1-one]
ErbB2 V777L
  IC50: 100 to 500 nM
EGFR WT
  IC50: < 50 nM

## C=CC(=O)N1CCN(c2ncc3ncnc(Nc4ccc(Oc5ccc6c(c5)nnn6C)c(C)c4F)c3n2)CC[C@@H]1C [Compound 169, (S)-1-(4-(8-((2-fluoro-3-methyl-4-((1-methyl-1H-benzo[d][1,2,3]triazol-5-yl)oxy)phenyl)amino)pyrimido[5,4-d]pyrimidin-2-y1)-7-methyl-1,4-diazepan-1-yl)prop-2-en-1-one]
ErbB2 V777L
  IC50: 100 to 500 nM
EGFR WT
  IC50: 500 to 1000 nM

## C=CC(=O)N[C@@H]1CCCCN(c2ncc3ncnc(Nc4ccc(Oc5ccc6c(c5)nnn6C)c(C)c4F)c3n2)C1 [Compound 170, (R)-N-(1-(8-((2-fluoro-3-methyl-4-((1-methyl-1H-benzo[d][1,2,3]triazol-5-yl)oxy)phenyl)amino)pyrimido[5,4-d]pyrimidin-2-yl)azepan-3-yl)acrylamide]
ErbB2 V777L
  IC50: 100 to 500 nM
EGFR WT
  IC50: 100 to 500 nM

## C=CC(=O)N[C@H]1CCCCN(c2ncc3ncnc(Nc4ccc(Oc5ccc6c(c5)nnn6C)c(C)c4F)c3n2)C1 [Compound 173, (S)-N-(1-(8-((2-fluoro-3-methyl-4-((1-methyl-1H-benzo[d][1,2,3]triazol-5-yl)oxy)phenyl)amino)pyrimido[5,4-d]pyrimidin-2-yl)azepan-3-yl)acrylamide]
ErbB2 V777L
  IC50: 50 to 100 nM
EGFR WT
  IC50: 100 to 500 nM

## C=CC(=O)N1CCN(c2ncc3ncnc(Nc4ccc(Oc5cc6nnn(C)c6c(F)c5C)c(C)c4)c3n2)C[C@H]1C [Compound 174, (R)-1-(4-(8-((4-((7-fluoro-1,6-dimethyl-1H-benzo[d][1,2,3]triazol-5-yl)oxy)-3-methylphenyl)amino)pyrimido[5,4-d]pyrimidin-2-yl)-2-methylpiperazin-1-yl)prop-2-en-1-one]
ErbB2 V777L
  IC50: 100 to 500 nM
EGFR WT
  IC50: ≥ 1000 nM

## C=CC(=O)N1C[C@@H]2C[C@H]1CN(c1ncc3ncnc(Nc4ccc(Oc5cc(F)c6c(c5)ncn6C)c(C)c4F)c3n1)C2 [Compound 175, 1-((1R,5S)-3-(8-((2-fluoro-4-((7-fluoro-1-methyl-1H-benzo[d]imidazol-5-y1)oxy)-3-methylphenyl)amino)pyrimido[5,4-d]pyrimidin-2-yl)-3,6-diazabicyclo[3.2.1]octan-6-yl)prop-2-en-1-one]
ErbB2 V777L
  IC50: 100 to 500 nM
EGFR WT
  IC50: 50 to 100 nM

## C=CC(=O)N1CCN(c2ncc3ncnc(Nc4ccc(Oc5cc6nnn(C)c6c(F)c5C)c(C)c4F)c3n2)C[C@H]1C [Compound 176, (R)-1-(4-(8-((2-fluoro-4-((7-fluoro-1,6-dimethyl-1H-benzo[d][1,2,3]triazol-5-yl)oxy)-3-methylphenyl)amino)pyrimido[5,4-d]pyrimidin-2-yl)-2-methylpiperazin-1-yl)prop-2-en-1-one]
ErbB2 V777L
  IC50: 500 to 1000 nM
EGFR WT
  IC50: 100 to 500 nM

## C=CC(=O)N1CCN(c2ncc3ncnc(Nc4ccc(Oc5cnc6c(c5)ncn6C(F)F)c(C)c4F)c3n2)C[C@H]1C [Compound 177, (R)-1-(4-(8-((4-((3-(difluoromethyl)-3H-imidazo[4,5-b]pyridin-6-yl)oxy)-2-fluoro-3-methylphenyl)amino)pyrimido[5,4-d]pyrimidin-2-y1)-2-methylpiperazin-1-yl)prop-2-en-1-one]
ErbB2 V777L
  IC50: 100 to 500 nM
EGFR WT
  IC50: < 50 nM
